Experimental data published in patent US20060286167A1, “Compositions and methods for the treatment of neurodegenerative diseases” (priority 2005, published 2006).
Counter-ions that a name gives are not always drawn. Where no end group is shown, it is not given here.

Test system: SMN protein in SMA patient fibroblasts (GM03813)
Assay: SMN cytoblot assay (SMN protein levels in SMA patient fibroblasts)
Type: cell-based, human
Conditions: not given
Source text: One method for monitoring SMN protein levels in cells is through use of a cytoblot assay, in which cells are fixed and probed with an antibody against a target protein of interest. We have used a cytoblot assay to determine the concentration of SMN protein in SMA patient fibroblasts, and have identified small molecules that increase SMN protein concentration.
Using the cytoblot assay, we can clearly distinguish SMN protein levels in patient (GM03813) versus carrier fibroblast cells (GM03814), as shown in the FIGS. 1A and 1B.
• 1. Plate 50 μl per well of 300,000 cells/ml (15,000 cells per well) into Nunc white 384-well opaque-bottomed plates. • 2. Incubate plates at 37° C., 5% CO2 overnight. Day 2 • 1. Aspirate media from wells using Tecan plate washer. • 2. Fix cells by adding 20 μl/well of cold methanol (kept in −20° C. freezer). • 3. Incubate plates in 4° C. refrigerator for 10 minutes. • 4. Aspirate methanol using Tecan plate washer. • 5. Add 50 μl/well of primary Ab solution, (BD anti-SMN Ab diluted to 125 ng/ml in 10% fetal goat serum PBST), using multi-drop. • 6. Seal plates and incubate overnight at room temperature. Day 3 • 1. After 16-20 hrs incubation, wash plates with PBST 2× using Tecan plate washer. • 2. Add 50 μl of secondary Ab solution, (Santa Cruz goat anti-Mouse-HRP diluted to 67 ng/ml in 10% fetal goat serum PBST). • 3. Seal plates and incubate 2 hrs at room temperature. • 4. Wash plates with PBST 2× using Tecan plate washer. • 5. Add 50 μl/well 10% fetal goat serum PBST. • 6. Incubate in 4° C. refrigerator for 10 minutes. • 7. Aspirate plates using plate washer and add ECL luminescence solution, 20 μl/well. • 8. Measure luminescence on plate reader. Automated Scoring
We scored each compound based on the maximum signal-to-noise ratio (SNR) found among its dose curves. These scores are based on edge-corrected SMN data, using only plates that passed quality control. The untreated level on each plate was found by taking the median of the untreated wells, and for each treated well we calculated a log(T/U) ratio. Each curve was generated in triplicate on each plate, so each point on a compound's dose curve was obtained by determining the median for the replicate points. Each ratio thus has an error estimate from the scatter between the triplicate data points (1.5 times the median absolute deviation from the median). For each dose curve, we calculated the SNR for each data point log(T/U)/error, and chose the maximum point as our indicator of SMN induction activity. Since this is a signal-to-noise score, scores much greater than one indicate significant activity, assuming normal statistics. We decided to use a cutoff signal-to-noise ratio of 6. This selection represents a considerable enrichment towards visually-selected compounds. We identified 100 out of 2000 compounds producing scores >6. This included 13 of the 28 visual selections.

Molecule | SNR
[Ca+2].[Cl-].[Cl-] [Calcium Chloride] | 7.63
CS(=N)(=O)CC[C@H](N)C(=O)O (stereo partly drawn) [L-Methionine Sulfoximine] | 7.29
Ferrous Sulfate | 7.55
C1CNCCN1.O=C(O)CC(O)(CC(=O)O)C(=O)O [Piperazine Citrate] | 6.68
O=S(=O)([O-])[O-].[Mn+2] [Manganese Sulfate] | 10.3
Ferric Ammonium Citrate | 19.4

Same assay, conditions: maximum signal-to-noise ratio log(T/U)/error among a compound's dose curves, SMN cytoblot; cutoff 6; column Scoring says Automated or Visual selection

Molecule | SNR
CN1CCN(C2=Nc3ccccc3Oc3ccc(Cl)cc32)CC1 [Loxapine Hydrochloride] | 10.1
CN(C)c1nc(N(C)C)nc(N(C)C)n1 [Altretamine] | 10.2
Neomycin Sulfate | 7.96
CCCC(CCC)C(=O)O[C@H]1C[C@H]2CC[C@@H](C1)[N+]2(C)C [Anisotropine Methylbromide] | 6.43
C=CCCC(=O)O [4-Pentenoic acid] | 10.8
CCC(=O)OCC(=O)[C@@]1(OC(=O)CC)[C@@H](C)C[C@H]2[C@@H]3CCC4=CC(=O)C=C[C@]4(C)[C@@]3(Cl)[C@@H](O)C[C@@]21C [Beclomethasone Dipropionate] | 6.27
NC[C@@H]1O[C@H](O[C@H]2[C@@H](O)[C@H](O[C@@H]3[C@@H](O)[C@H](N)C[C@H](N)[C@H]3O[C@H]3O[C@H](CN)[C@@H](O)[C@H](O)[C@H]3N)O[C@@H]2CO)[C@H](N)[C@@H](O)[C@@H]1O [Framycetin] | 13.3
[Cl][Cu][Cl] [Cupric Chloride] | 12.1
O=C(OCc1ccccc1)c1ccccc1 [Benzyl Benzoate] | 9.42
CC(C)(C)OC(=O)N1CCCNCC1 [1-Boc-homopiperazine] | 6.66
CCN(CC)CCNC(=O)c1cc(S(C)(=O)=O)ccc1OC [Tiapride] | 10.5
N=C(N)NC(=O)Cc1c(Cl)cccc1Cl [Guanfacine Hydrochloride, (N-aminoiminomethyl)-2,6-dichlorobenzeneacetamide] | 7.24
CC(Cc1cccc(C(F)(F)F)c1)NCCOC(=O)c1ccccc1 (stereo not shown) [Benfluorex Hydrochloride] | 7.11
CC(=O)OC/C=C(\C)CCC=C(C)C [Geranyl Acetate] | 6.71
CCCCc1cccs1 [2-n-Butylthiophene] | 8.96
C=N[C@@H](C(=O)N[C@@H]1C(=O)N2[C@@H]1SC(C)(C)[C@@H]2C(=O)O)c1ccccc1 [Metampicillin] | 9.95
COc1c2occc2c(OC)c2c(=O)cc(C)oc12 [Khellin] | 6.73
CCCN1C[C@H](CSC)C[C@@H]2c3cccc4[nH]cc(c34)C[C@H]21 [Pergolide Mesylate] | 7.69
CC(=O)OCC(=O)[C@@]12OC(C)(C)O[C@@H]1C[C@H]1[C@@H]3C[C@H](F)C4=CC(=O)C=C[C@]4(C)[C@@]3(F)[C@@H](O)C[C@@]12C [Fluocinonide] | 7.01
CCCCCCCC/C=C\CCCCCCCC(=O)OC [Methyl Oleate] | 7.89
CC[C@]12CCCN3CCc4c(n(c5ccccc45)[C@@](O)(C(=O)OC)C1)[C@@H]32 [Vincamine] | 6.94
CCCCCC/C=C\CCCCCCCC(=O)OC [Methyl Palmitoleate] | 9.63
S=[Se]=S [Selenium Sulfide] | 7.08

Molecule | SNR
C#CCN(C)Cc1ccccc1 [Pargyline] | 6.52
CCCCCC(Br)C(=O)O (stereo not drawn) [alpha-Bromohepyanoic acid] | 8.41
NCC[C@H](O)C(=O)N[C@@H]1C[C@H](N)[C@@H](O[C@H]2O[C@H](CN)[C@@H](O)[C@H](O)[C@H]2O)[C@H](O)[C@H]1O[C@H]1O[C@H](CO)[C@@H](O)[C@H](N)[C@H]1O.O=S(=O)(O)O.O=S(=O)(O)O [Amikacin Sulfate] | 7.7
C=CCOc1ccccc1OCC(O)CNC(C)C (stereo not shown) [Oxprenolol Hydrochloride] | 6.52
CC[N+](CC)(CC)CCOc1cccc(OCC[N+](CC)(CC)CC)c1OCC[N+](CC)(CC)CC [Gallamine Triethiodide] | 15.4
Gentamicin Sulfate | 14.9
CC(=O)N1C[C@H](O)C[C@H]1C(=O)O [Oxaceprol] | 10.6
CC(=O)OCC(=O)[C@H]1CC[C@H]2[C@@H]3CCC4=CC(=O)CC[C@]4(C)[C@H]3CC[C@]12C [Desoxycorticosterone Acetate] | 7.41
CC1(C)S[C@@H]2[C@H](NC(=O)C(C(=O)O)c3ccccc3)C(=O)N2[C@H]1C(=O)O (stereo partly shown) [Carbenicillin Disodium] | 7.99
CN(C)[C@@H]1C(O)=C(C(N)=O)C(=O)[C@@]2(O)C(O)=C3C(=O)c4c(O)ccc(Cl)c4[C@@](C)(O)[C@H]3C[C@@H]12 [Chlortetracycline Hydrochloride] | 10.4
Teicoplanin | 9.72
CC(C)CCCC(C)CCCC(C)CCCCC(C)CCCC(C)CCCC(C)C (stereo not shown) [Hexamethyltetracosane] | 6.64
C[C@H]1COc2c(C3(N)CC3)c(F)cc3c(=O)c(C(=O)O)cn1c23 [Pazufloxacin] | 7.83
O=C(N/N=C/c1ccc([N+](=O)[O-])o1)c1ccc(O)cc1 [Nifuroxazide] | 6.96
C=C(C)C1CCC(C)CC1OC(C)=O (stereo not shown) [Isopulegol acetate] | 11.4
CC(C)=CCCC(C)CC=O (stereo not shown) [Citronellal] | 8.6
[2-(hexahydro-1 (2H)-azocinyl)ethyl]guanidine [Guanethidine Monosulfate] | 11.3
Nonoxynol-9 | 7
O=C(O)[C@H](O)[C@@H](O)C(=O)O [L-Tartaric acid] | 6.92
C[N+]1(CCC(C(N)=O)(c2ccccc2)c2ccccc2)CCCCC1 [Fenpiverinium Bromide] | 7.49
CC1CCC(=CC(=O)O)CC1 (stereo not shown) [2-(4-methyl010cyclohexylidene) acetic acid] | 6.16
CC(=O)Nc1c(I)cc(I)c(C(=O)O)c1I [Acetrizoate Sodium] | 12.8
CNCCNS(=O)(=O)c1cccc2cnccc12 [H-8] | 9.52

Molecule | SNR
O=C1Nc2ccc(Cl)cc2[C@@](C#CC2CC2)(C(F)(F)F)O1 [Efavirenz] | 13.1
CC(C)NCC(O)COc1ccc(CCOCC2CC2)cc1 (stereo not shown) [Betaxolol Hydrochloride] | 7.21
Calcitonin (CGNLSTCMLGTYTQDFNKFHTFPQTAIGVGAP; ends and bridges not checked; cysteine pairing not given here; UniProt P01258 85-116, looked up) | 7.46
CS(=O)(=O)OCCCCOS(C)(=O)=O [Busulfan] | 17.4
CCCCC(CC)COC(=O)/C=C/C(=O)OCC(CC)CCCC (stereo not shown) [Bis(2-Ethlyhexyl) Fumarate] | 7.33
Dibekacin Sulfate Salt | 6.79
C/C=C/c1ccc(OC)cc1 [Trans-Anethole] | 8.35
CC(=O)Oc1cc(C(C)C)c(OCCN(C)C)cc1C [Moxisylyte Hydrochloride] | 14.3
O=C(O)c1ccccc1OP(=O)(O)O [Fosfosal] | 6.77
C=CCSC[C@H](N)C(=O)O [S-Allyl-L-Cysteine] | 9.02
OC[C@@H](O)[C@@H](O[C@@H]1O[C@H](CO)[C@H](O)[C@H](O)[C@H]1O)[C@H](O)[C@@H](O)CO [Lactitol] | 15.8
O=c1[nH]c(=O)n(C2CCCO2)cc1F (stereo not shown) [Tegafur] | 6.74
CC1=C(/C=C/C(C)O)C(C)(C)CCC1 (stereo not drawn) [Beta-Ionol] | 10.3
CC[C@@H](C(N)=O)N1CCCC1=O [Levetiracetam] | 7.74
C=CCSSCC=C [Allyl Disulfide] | 9.08
CC1CCC(C(C)C)C(O)C1 (stereo not shown) [Menthol] | 7.87
CC(C[N+](C)(C)C)OC(N)=O (stereo not shown) [Bethanechol Chloride] | 9.26
CCN(CC)C(C)CN1c2ccccc2Sc2ccccc21 (stereo not shown) [Ethopropazine Hydrochloride] | 9.61
CCCCC/C=C\C/C=C\CCCCCCCC(=O)OC [Methyl Linoleate] | 10.1
CN[C@@H]1[C@H](O)[C@H](NC)[C@H]2O[C@@]3(O)C(=O)C[C@@H](C)O[C@H]3O[C@@H]2[C@H]1O [Spectinomycin] | 11
CN1CCCN=C1/C=C/c1cccs1 [Pyrantel Pamoate] | 6.22
